# Experimental data taken from patent publication US20030138946A1.
# What was measured:
# Type in all cases: cell-based, mouse
# normal B6 CD8^+ cells = experiment: Proliferation of normal (nontransgenic) B6 CD8+ cells to peptide on L^d.B7.ICAM Drosophila APC; conditions: 10 μM peptide, L^d.B7.1CAM APC, 1×10^6 responder cells, no added cytokines
# Description: The capacity of L^d.B7.1CAM Drosophila cells to induce a strong primary response of 2C TCR transgenic CD8^+ cells raised the question whether Drosophila cells could act as antigen-presenting cells for normal (nontransgenic) CD8^+ cells. Since the 2C mice were on a B6 (H-2b) background, the response of normal B6 CD8^+ cells was tested. Graded doses of CD8^+ cells from normal B6 mice were cultured with 10 μM QL9 peptide presented by L^d.B7.1CAM Drosophila antigen-presenting cells, i.e. a situation where a diverse repertoire of T-cells was exposed to only a single alloantigen (L^d+QL9) but at high concentration. As shown in FIG. 19 (left), presentation of QL9 by L^d.B7.1CAM antigen-presenting cells was indeed immunogenic for normal B6 CD8^+ cells and led to appreciable proliferative responses on Day 3 (80,000 cpm) with large doses of responder cells (1×10^6) in the absence of added cytokines; responses to an unrelated peptide, MCMV, were much lower (though significant) and no response occurred in the absence of peptide. As expected, the response of normal B6 CD8+cells to QL9 plus L^d.B7.1CAM antigen-presenting cells was substantially lower than with normal B10.D2 spleen cells as antigen-presenting cells (where the allostimulus was provided by a multiplicity of self peptides bound to L^d, K^d and D^d, but at low concentration) (FIG. 19, right. Note the difference in the Y axis scales).
# [1] = test system: CD8^+ 2C lymph node cells; experiment: IL-2 production by CD8+ 2C lymph node cells (CTLL indicator line 3HTdR); conditions: peptide 10 μM
# Description: (§1) Using a standard tissue culture system (Cai, Z. and Sprent, J. (1994) J. Exp. Med. 179: 2005-2015), doses of 5×10^4 purified CD8^+ 2C lymph node (LN) cells were cultured at 37° C. with doses of 3×10^5 transfected fly cells ±peptides (10 μM final concentration). Peptides were synthesized by R. W. Johnson Pharmaceutical Research Institute (Sykulev, et al. (1994) Immunity 1: 15-22. Proliferative responses were measured by adding ^3HTdR (1 μCi/well) 8 hours prior to harvest. IL-2 production was measured by removing supernatants from the cultures at 48 hours and adding 50 μl supernatant to an IL-2 responsive indicator cell line (CTLL); proliferation of the indicator line was measured by addition of ^3HTdR. The data shown in Table 2 are the means of triplicate cultures. The transfected Drosophila S2 cells die rapidly at 37° C. and fail to incorporate ^3HTdR at this temperature.
# [2] = test system: CD8^+ 2C lymph node cells; experiment: Primary proliferative response of CD8+ 2C lymph node cells to peptides presented by transfected fly cells (3HTdR); conditions: peptide 10 μM
# Description: as §1
substance,measurement,setting,value
Gln-Leu-Ser-Pro-Phe-Pro-Phe-Asp-Leu [QL9],proliferative response on Day 3,normal B6 CD8^+ cells,"80,000 cpm"
same,"IL-2 Production (Day 2) ^3HTdR incorporation, fly cells expressing L^d",[1]; APC L^d,0.1 cpm × 10^3
same,"IL-2 Production (Day 2) ^3HTdR incorporation, fly cells expressing L^d + B7.1",[1]; APC L^d + B7.1,0.4 cpm × 10^3
same,"IL-2 Production (Day 2) ^3HTdR incorporation, fly cells expressing L^d + B7.1 + ICAM-1",[1]; APC L^d + B7.1 + ICAM-1,158.6 cpm × 10^3
same,"IL-2 Production (Day 2) ^3HTdR incorporation, fly cells expressing L^d + ICAM-1",[1]; APC L^d + ICAM-1,0.2 cpm × 10^3
same,"IL-2 Production (Day 2) ^3HTdR incorporation, L^d + B7.1 combined with L^d + ICAM-1",[1]; mixture of two APC lines,0.5 cpm × 10^3
same,"Proliferation (Day 3) ^3HTdR incorporation, fly cells expressing L^d",[2]; APC L^d,0.2 cpm × 10^3
same,"Proliferation (Day 3) ^3HTdR incorporation, fly cells expressing L^d + B7.1",[2]; APC L^d + B7.1,60.9 cpm × 10^3
same,"Proliferation (Day 3) ^3HTdR incorporation, fly cells expressing L^d + B7.1 + ICAM-1",[2]; APC L^d + B7.1 + ICAM-1,263.7 cpm × 10^3
same,"Proliferation (Day 3) ^3HTdR incorporation, fly cells expressing L^d + ICAM-1",[2]; APC L^d + ICAM-1,73.9 cpm × 10^3
same,"Proliferation (Day 3) ^3HTdR incorporation, L^d + B7.1 combined with L^d + ICAM-1",[2]; mixture of two APC lines,132.9 cpm × 10^3
